Experiments:
Conditions in all cases: 48 h
[1] = test system: CU-ACC1; experiment: AC50 viability; higher = less potent
In short: (§1)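 Library compounds were dispensed at 11 concentrations (23 nL each) onto three adrenocortical carcinoma cell lines in 1,536-well plates. Luminescence was recorded after 48 h using CellTiter-Glo, and signals were normalised per plate to vehicle and empty-well controls. Fitted concentration-response curves of inhibitory or non-responding classes only supplied the AC50 and area under the curve.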

[2] = test system: CU-ACC2; experiment: AC50 viability; higher = less potent
In short: as §1

[3] = test system: NCI-H295R; experiment: AC50 viability; higher = less potent
In short: as §1

[4] = test system: CU-ACC1; experiment: area under concentration-response curve (viability) (AUC (a.u.)); higher = less active
In short: as §1

[5] = test system: CU-ACC2; experiment: as above
In short: as §1

[6] = test system: NCI-H295R; experiment: as above
In short: as §1

| Structure (SMILES) | AC50 viability [1] [µM] | AC50 viability [2] [µM] | AC50 viability [3] [µM] | area under concentration-response curve [4] | area under concentration-response curve [5] | area under concentration-response curve [6] |
| --- | --- | --- | --- | --- | --- | --- |
| CC(C)c1c2cc(-c3ccnc(N[C@H]4CC[C@H](NC5CCOCC5)CC4)n3)ccc2nn1C | 0.372 | 0.263 | 0.417 | 333 | 376 | 380 |
| CC(N[C@H]1CCCC[C@@H]1NC(=O)c1ccc(Cl)cc1)c1cccc2ccccc12 (some centres not stated) | 33.2 | 23.5 | 18.6 | 432 | 550 | 422 |
| COC(=O)Nc1cc(Nc2cc(NC3CC3)c3ncc(C#N)n3n2)c(Cl)c(N2CCN(C)CC2)c1 | 6.61 | 6.61 | 2.63 | 466 | 506 | 443 |
| CN(C)CCOc1ccc(-c2nc(-c3ccncc3)c(-c3ccc4c(c3)CC/C4=N\O)[nH]2)cc1 | 16.6 | 20.9 | 14.8 | 398 | 521 | 440 |
| CC(C)(O)CNc1ncc(-c2ccnc(Nc3ccncc3)n2)c(CC2CC2)n1 | 10.5 | 20.9 | 18.6 | 442 | 485 | 487 |
| CNC1CCC(N(Cc2cccc(-c3ccncc3)c2)C(=O)c2sc3ccccc3c2Cl)CC1 (configuration not stated) | 10.5 | 7.42 | 9.34 | 406 | 448 | 425 |
| ClC/1=C(NCCN2CCOCC2)/C(=O)C3=C(C=CC=N3)C1=O | 2.35 | 8.33 | 5.9 | 387 | 409 | 440 |
| CO[C@@H](C)Cn1c(=O)n(C)c2cnc3ccc(-c4cncc(C(C)(C)O)c4)cc3c21 | 0.742 | 0.661 | 1.05 | 398 | 419 | 445 |
| CC/1=C(\O)C(=O)\C=C2/C1=C\C=C3/[C@@]2(C)CC[C@@]4(C)[C@@H]5C[C@@](C)(CC[C@]5(C)CC[C@]34C)C(O)=O | 13.2 | 6.61 | 23.5 | 474 | 515 | 447 |
| C[N]1C=C(C=N1)C2=CC=C3N=CC\4=C(N(C(=O)\C=C4)C5=CC6=C(CCN6C(=O)C=C)C=C5)C3=C2 | 0.407 | 0.723 | 0.723 | 349 | 433 | 399 |
| Nc1ccc(/C=C/C(=O)NCc2cc3cc(-c4ccc(C(=O)N5CCC(F)(F)CC5)cc4)cc(-c4ccc(F)cc4)c3o2)cn1 | 2.09 | 2.35 | 3.32 | 340 | 447 | 458 |
| Cc1ccc(C(=O)Nc2cccc(C(F)(F)F)c2)cc1Nc1nc(-c2cccnc2)nc2c1cnn2C | 23.5 | 20.9 | 18.6 | 440 | 515 | 477 |
| CCc1cc(-c2n[nH]c(C)c2-c2ccc3c(c2)OCCO3)c(O)cc1O | 23.5 | 23.5 | 20.9 | 529 | 611 | 565 |
| CC(C)C[C@@H](C=O)NC(=O)[C@H](CC(C)C)NC(=O)[C@H](CC(C)C)NC(=O)OCc1ccccc1 | 1.48 | 0.934 | 0.742 | 374 | 409 | 407 |
| CC(=O)c1ccc2c(c1)c1cc(C(C)=O)ccc1n2CCNC(C)C | 2.09 | 2.95 | 2.35 | 405 | 415 | 421 |
| NC1(Cc2ccc(Cl)cc2)CCN(c2ncnc3[nH]ccc23)CC1 | 16.6 | 18.6 | 14.8 | 444 | 540 | 461 |
| CCCCOc1c(C(=O)c2c(F)cc(C)cc2F)cnc2[nH]ncc12 | 1.48 | 2.09 | 2.35 | 419 | 407 | 432 |
| CO[C@@H]1[C@@H](O)[C@H](O)[C@@H](n2c3c(Cl)cccc3c3c4c(c5c6cccc(Cl)c6[nH]c5c32)C(=O)NC4=O)O[C@H]1CO | 3.32 | 8.33 | 2.63 | 461 | 438 | 494 |
| Cc1nn(Cc2ccccc2Cl)c(C)c1CN(C)CC(O)COc1ccc(Cl)cc1 (configuration not stated) | 8.33 | 7.42 | 8.33 | 418 | 507 | 482 |
| Cc1ccc(NC(=O)c2ccc(CN3CCN(C)CC3)cc2)cc1Nc1nc(-c2cccnc2)cs1 | 23.5 | 23.5 | 18.6 | 503 | 586 | 547 |
| C=CC(=O)N1CC[C@@H](Oc2nc(Nc3ccc(N4CCC(N5CCN(C)CC5)CC4)cc3)c(C(N)=O)nc2CC)C1 | 8.11 | 8.11 | 8.11 | 521 | 559 | 529 |
| CN(C)c1cc2c(cc1Sc1nc3c(N)nccc3n1CCNCC(C)(C)C)OCO2 | 2.95 | 2.95 | 2.35 | 391 | 499 | 467 |

Reference: the supplement of paper PMC10949913
